Reference: patent US10947260B2, “Phosphinolactone derivatives and pharmaceutical uses thereof” (INSTITUT NATIONAL DE LA SANTE ET DE LA RECHERCHE MEDICALE …, priority 2016, dated 2021)

Legend:
[1] = system: mice treated with Aβ25-35; test: Passive avoidance test, Aβ25-35 model; format: in vivo; conditions: 0.1 and 0.3 mg/kg IP; Days 8 and 9
Procedure: The amyloid-β[25-35] peptide (Aβ25-35) and control peptide (Sc.Aβ) were obtained from Genepep (Saint-Jean-de-Vedas, France). They were solubilized in injectable distilled water at a concentration of 3 mg/ml and stored at −20° C. Before injection, the peptides were incubated at 37° C. for 4 days, which enabled the Aβ25-35 peptide but not the Sc.Aβ, to form oligomers. They were administered via intracerebroventricular route (ICV). The animals were anesthetized by inhaling 2.5% isoflurane (TEM) and were given 3 μl of peptide solution via direct ICV route (Haley and McCormick's method). For injection a 10 μl Hamilton micro-syringe was used at a flow rate of 1 μl/min.
The apparatus contained two compartments (15×20×15 cm in height) with one light part having walls in white PVC and the other dark with walls in black PVC and a grid floor. A vertical sliding door separated each compartment. A 60 W lamp was positioned 40 cm above the white compartment during the experiment. Electrical shocks (0.3 mA for 3 s) were delivered to the grid floor by means of a scrambled shock generator (Lafayette Instruments, Lafayette, United States). The vertical sliding door was first closed during the training session. […] Step-through latency (STL) i.e. the time taken to enter the dark compartment and the number of cries, were recorded. […] Step-through latency was recorded up to 300 s. […]

APPSwe mice = test: Biochemical analyses in hippocampus of APPSwe mice; format: in vivo; conditions: 1 mg/kg/j IP
Procedure: FIG. 12: Biochemical analyses of the effect of treatments with compound 3b (a) or 3c (b) in the hippocampus of APPSwe mice. Oxidative stress was measured via the level of peroxidation of membrane lipids at (a), or DCF fluorescence at (b). The expression levels of synaptophysin, Bax, IL1β and TNFα were measured using commercial Elisa kits. The values are given as % of the control group WT/V. N=6-8 per group. *p<0.05, **p<0.01 compared with group WT/V; #p<0.05, ##p<0.01 compared with group APPSwe/V; Student t-test.
After sacrifice, the hippocampus and brain cortex of the mice were dissected and frozen to −80° C. until use. The accumulation of reactive oxygen species was measured by fluorescence of 2′,7′-dichlorofluorescein (DCF) in the hippocampus of the mice ex vivo. DCF diacetate (0.5 μM) (Sigma-Aldrich) was added to SDS-soluble fractions of hippocampus extract. After 30 min at 37° C., DCF fluorescence was quantified (excitation at 485 nm, emission at 530 nm) in a Fluoroskan Ascent spectrofluorometer (Thermo Scientific, Waltham, USA), and normalized with the protein concentrations of the extracts.
Peroxidation of membrane lipids was measured using the cumene/xylenol method. The hippocampi were homogenized in methanol (1:10), centrifuged at 1 000 g for 5 min and the supernatant collected. Aliquots were added to a solution containing 1 mM FeSO4, 0.25 m H2SO4, 1 mM xylenol orange and incubated for 30 min at ambient temperature. Absorbance was measured at 580 nm (A5801), then 10 μl of 1 mM cumene hydroperoxide (CHP) was added and the sample incubated 30 min at ambient temperature. Absorbance was measured at 580 nm (A5802). Lipid peroxidation level was determined as CHP equivalents: CHP eq.=A5801/A5802×[CHP (nmol)]×dilution, and calculated in CHP eq. per tissue weight expressed as % of the control group.
Various biochemical parameters were analysed in the hippocampus of APPSwe mice after treatments with 3b, 2 mg/kg/j IP, or 3c, 1 mg/kg/j IP (FIG. 12).

Structure (SMILES): CC1(C)COP(=O)(c2ccc(Cl)cc2)C(C)(C)N1 (racemic) [Compound 3c, (±)-2-(4-Chlorophenyl)-2-oxo-3,3,5,5-tetramethyl-[1,4,2]-oxazaphosphinane]
- long-term memory response (passive avoidance step-through latency) [1]: appeared effective
- IL1β level, hippocampus (APPSwe mice): not
- expression of Bax, hippocampus (APPSwe mice): caused a decrease
- oxidative stress (DCF fluorescence), hippocampus (APPSwe mice): not
- synaptophysin level, hippocampus (APPSwe mice): not
